Measurements taken from BindingDB's records for patent US20230382904 (The Johns Hopkins University, 2023).

Tests used:
[1] = biological target: T1, Mitogen-activated protein kinase kinase kinase 12 (Homo sapiens, UniProt Q12852); test: DLK Biochemical Assay
T1 sequence (Q12852 whole entry): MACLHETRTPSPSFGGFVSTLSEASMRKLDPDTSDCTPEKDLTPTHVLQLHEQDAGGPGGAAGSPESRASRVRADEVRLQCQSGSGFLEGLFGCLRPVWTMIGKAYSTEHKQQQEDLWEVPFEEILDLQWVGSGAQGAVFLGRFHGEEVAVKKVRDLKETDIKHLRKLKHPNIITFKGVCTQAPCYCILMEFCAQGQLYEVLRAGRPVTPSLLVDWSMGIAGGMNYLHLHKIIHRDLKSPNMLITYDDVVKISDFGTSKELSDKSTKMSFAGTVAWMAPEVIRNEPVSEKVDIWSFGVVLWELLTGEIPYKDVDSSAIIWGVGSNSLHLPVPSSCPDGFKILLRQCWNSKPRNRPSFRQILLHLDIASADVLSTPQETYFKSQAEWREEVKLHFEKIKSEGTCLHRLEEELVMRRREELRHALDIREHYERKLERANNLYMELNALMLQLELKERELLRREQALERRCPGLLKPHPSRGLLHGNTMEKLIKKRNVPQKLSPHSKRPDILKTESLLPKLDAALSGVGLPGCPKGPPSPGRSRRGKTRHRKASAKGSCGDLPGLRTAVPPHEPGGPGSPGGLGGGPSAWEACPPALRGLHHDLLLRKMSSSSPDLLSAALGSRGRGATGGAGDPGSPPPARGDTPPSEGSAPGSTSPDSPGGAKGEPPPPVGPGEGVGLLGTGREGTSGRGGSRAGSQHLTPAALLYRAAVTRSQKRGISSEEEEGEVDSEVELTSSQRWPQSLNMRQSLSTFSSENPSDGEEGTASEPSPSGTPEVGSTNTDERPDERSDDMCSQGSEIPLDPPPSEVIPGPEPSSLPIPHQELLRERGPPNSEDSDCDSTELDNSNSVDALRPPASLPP

[2] = biological target: T2, Mitogen-activated protein kinase kinase kinase 13 (Homo sapiens, UniProt O43283); test: LZK Biochemical Assay
T2 sequence (O43283 whole entry): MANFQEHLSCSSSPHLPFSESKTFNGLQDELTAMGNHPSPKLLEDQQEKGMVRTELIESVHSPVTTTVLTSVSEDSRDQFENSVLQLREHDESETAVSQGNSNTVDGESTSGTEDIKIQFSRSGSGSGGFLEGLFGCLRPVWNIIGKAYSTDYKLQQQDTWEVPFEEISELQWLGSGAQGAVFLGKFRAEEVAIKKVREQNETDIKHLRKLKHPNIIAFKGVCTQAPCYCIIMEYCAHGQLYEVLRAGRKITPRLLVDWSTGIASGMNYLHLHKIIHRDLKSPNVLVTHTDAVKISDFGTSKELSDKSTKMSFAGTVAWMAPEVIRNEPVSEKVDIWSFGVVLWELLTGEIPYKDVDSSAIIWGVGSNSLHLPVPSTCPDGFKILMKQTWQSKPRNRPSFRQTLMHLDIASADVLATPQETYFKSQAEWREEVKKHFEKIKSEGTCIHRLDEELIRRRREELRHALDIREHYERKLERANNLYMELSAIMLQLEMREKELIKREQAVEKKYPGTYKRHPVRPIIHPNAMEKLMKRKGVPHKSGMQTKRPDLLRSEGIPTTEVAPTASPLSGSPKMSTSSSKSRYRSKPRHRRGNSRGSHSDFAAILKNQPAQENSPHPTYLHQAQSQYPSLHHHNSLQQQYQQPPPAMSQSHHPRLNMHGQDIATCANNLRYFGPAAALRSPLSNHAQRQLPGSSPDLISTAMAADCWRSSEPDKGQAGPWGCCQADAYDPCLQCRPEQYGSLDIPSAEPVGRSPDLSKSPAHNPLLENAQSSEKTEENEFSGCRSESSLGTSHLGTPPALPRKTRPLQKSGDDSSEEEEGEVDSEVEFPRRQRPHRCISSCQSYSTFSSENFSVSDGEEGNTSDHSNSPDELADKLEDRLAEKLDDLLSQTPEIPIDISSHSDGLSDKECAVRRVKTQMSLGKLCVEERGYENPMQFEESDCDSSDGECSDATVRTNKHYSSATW
Experimental: All indicated concentrations final concentrations. […] Detection buffer: 25 mM Tris/HCl pH 7.5, 100 mM EDTA, 100 mM NaCl, 200 mM KF, 0.01% Tween 20, 1:500 Smart Block.

IC50 [1]: 0.0043 µM
IC50 [2]: 0.041 µM
Compound: COC[C@H](NC(=O)c1cc(-c2cc(C(=O)NC(C)C)n3nc(N)nc3c2)cs1)c1ccccc1 [US20230382904, Compound 155]
